Test results published in patent publication US6518262B1, “22R-hydroxycholesta-8, 14-diene derivatives for the inhibition of meiosis” (Akzo Nobel N.V., priority 1999, dated 2003).

Legend:
[1] = test system: naturally occurring meiosis activating substance; conditions: as disclosed in WO98/28323; cited from earlier work
[2] = test system: cumulus enclosed oocytes (CEO); assay: Oocyte assay, antagonistic testing, inhibition of 22S-hydroxy-FF-Mas induced maturation in cumulus enclosed oocytes (CEO assay); type: cell-based, mice (B6D2-F1, strain C57BL×DBA); conditions: 22S-hydroxy-FF-Mas 5 μM, control (22S-hydroxy-FF-Mas alone) in brackets
Procedure: (§1) The meiosis inhibiting activity of the 22R-hydroxycholesta-8,14-diene derivatives of the invention is measured in an in vitro oocyte assay as the ability to inhibit the FF-Mas or 22S-hydroxy-FF-Mas induced maturation, in hypoxanthine media, in denuded oocytes (DO) or cumulus enclosed oocytes (CEO), respectively. Natural resumption of meiosis can be mimicked in vitro by addition of FF-Mas or other agonists to the culture medium containing hypoxanthine. The antagonistic activity of the compounds is measured as the ability to inhibit the FF-Mas or 22S-hydroxy-FF-Mas induced oocyte maturation in denuded oocytes or cumulus enclosed oocytes, respectively, in vitro. Ovaries are obtained from immature female mice (B6D2-F1, strain C57BL×DBA). At the age of 19, 20 or 21 days the mice are injected subcutaneously with a single dose of 20 IU follicle stimulating hormone (Humegon, Organon, The Netherlands) in saline. Forty-eight hours after follicle stimulating hormone injection mice are killed by cervical dislocation. The ovaries are removed, freed of extraneous tissue and placed in a multidish containing 0.5 ml preparation medium at 37° C. L-15 Leibovitz medium (Gibco, pH 7.3±0.1) supplemented with bovine serum albumin (3 mg·ml^−1), L-glutamine (0.23 mM), sodium pyruvate (2 mM) and hypoxanthine (4 mM) is used as preparation medium. The antral follicles of the ovaries are punctured under a dissecting microscope using two 27-gauge needles attached to two 1 ml syringes. […] At t=0 the number of oocytes with intact germinal vesicles (GV) or germinal vesicle break-down (GVBD) is counted under an inverted microscope with differential interference contrast equipment. […] At the end of the culture period the number of oocytes with GV or GVBD per group is counted. For statistical analysis the percentage germinal vesicle breakdown is calculated for each group in one block. These percentages are subjected to arcsin transformation, and differences between control and test compounds are analyzed by an ANOVA test for a randomized block design. […]

[3] = test system: denuded oocytes (DO); assay: Oocyte assay, antagonistic testing, inhibition of FF-Mas induced maturation in denuded oocytes (DO assay); type: cell-based, mice (B6D2-F1, strain C57BL×DBA); conditions: FF-Mas 5 μM, compound tested 5 μM, control (FF-Mas alone) in brackets
Procedure: as §1

[4] = biological target: T1, LXRα receptor (Homo sapiens, UniProt Q13133); conditions: among a series of hydroxycholestane derivatives; cited from earlier work
T1 sequence (Q13133 1-447): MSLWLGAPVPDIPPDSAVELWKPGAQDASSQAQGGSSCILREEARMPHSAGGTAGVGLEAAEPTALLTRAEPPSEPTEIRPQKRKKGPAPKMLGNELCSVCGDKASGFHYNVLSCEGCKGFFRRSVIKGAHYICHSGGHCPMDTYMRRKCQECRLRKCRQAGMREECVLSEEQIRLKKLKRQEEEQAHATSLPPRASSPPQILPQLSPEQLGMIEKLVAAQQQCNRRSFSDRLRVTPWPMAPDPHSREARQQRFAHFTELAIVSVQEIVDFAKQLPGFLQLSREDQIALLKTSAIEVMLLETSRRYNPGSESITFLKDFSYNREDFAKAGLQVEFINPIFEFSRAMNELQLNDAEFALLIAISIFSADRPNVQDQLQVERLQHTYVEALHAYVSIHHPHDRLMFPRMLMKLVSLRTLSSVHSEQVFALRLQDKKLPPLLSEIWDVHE

## CC(C)CC[C@@H](O)[C@@H](C)[C@H]1CC[C@H]2[C@@H]3CC=C4C[C@@H](O)CC[C@]4(C)[C@H]3CC[C@]12C [22R-hydroxycholesterol]
[1]
  antagonist activity (meiosis regulating): only weakly active as an antagonist
[2]
  % GVBD CEO assay exp.: 52(89)^4%
[3]
  % GVBD DO assay exp.: 38(89) %
[4]
  activation of the LXRα receptor: most potent activator of the LXRα receptor
